In patent US20130084640A1, “ANIMAL CELL CULTURE MEDIA COMPRISING NON ANIMAL OR PLANT DERIVED NUTRIENTS” (LIFE TECHNOLOGIES CORPORATION, priority 1999, published 2013):

Test system: VERO cells
Test: VERO cell growth in basal medium with non-animal supplements (mean cell count over subcultures, RGE)
Format: cell-based
Experimental: No attachment factors or coating of the plastic surface are required for the culture of VERO cells. At 3 to 4 days the cells were removed using standard cell culture techniques. The surface of the culture was first washed with Dulbecco's Phosphate Buffered Saline (DPBS) and then 1.0 ml Trypsin-EDTA (Life Technologies, Inc., Rockville, Md.) was added. The digest was allowed to sit on the cell surface for 3 to 5 minutes or until the cells rounded up and began to detach from the surface of the flask. The cells were completely detached by vigorous agitation against the palm of the hand and then 1.5 ml of soybean trypsin inhibitor was added to quickly neutralize enzymatic activity. The cells were counted under the microscope using trypan blue straining solution and new cultures plated at 2.5×10^3 cells per 25 cm^2 flask. Incubation was at 37° C. in 5% CO^2 in air. The cultures were passaged for a total of 4 subcultures and the mean cells per subculture determined from the counts of the final 3 subcultures (P2+P3+P4[…]). Initial studies were designed to formulate a culture medium completely devoid of animal proteins that supports the culture of animal cells. To this end, enzymatic hydrolysates of a variety of non-animal sources were examined as supplements in the basal medium described in Example 1. Hydrolysates of wheat gluten (HYPEP 4301 I, designated below us “Wheat Hydrolysate 1”, and HYPEP 8382, designated below as “Wheat Hydrolysate 2”). soy (HY—SOY) and rice (HYPEP 5115), as well as an extract of baker's yeast (HY-YEST 444) were obtained from Quest International (Norwich, N.Y.) and were formulated into the basal medium of Example 1 at 200 mg/liter. […] To more closely examine their efficacy as supplements for the present media, rice hydrolysates were supplemented into basal media at differing concentrations. These media were then used to examine VERO cell growth as described above. Cell counts were compared to those obtained in basal medium that was unsupplemented (negative control) or to Earle's Modified Eagle's Medium (EMEM) supplemented with 5% fetal bovine serum (FBS; positive control). […] To examine additional sources of non-animal peptides and vitamins as supplements for the present media, extracts of yeast, soy and potato were obtained from Quest International (Norwich, N.Y.) and were supplemented into basal media at differing concentrations. Yeast extract (YE) was also examined as a co-supplement with rice hydrolysate. These media were then used to examine VERO cell growth as described above. Cell counts were compared to those obtained with EMEM supplemented with 5% FBS. […] RGE was calculated as described in Example 2. To more closely examine the use of yeast extract as a supplement in the present media, preparations of YE or an ultrafiltrate of YE (“YEU”) were supplemented into basal media in the presence or absence of 100 mg/liter of rice hydrolysate. These media were then used to examine VERO cell growth as described above. Cell counts were compared to those obtained in EMEM supplemented with 5% FBS (positive control). […] RGE was calculated as described in Example 2. […] These media were then used to examine VERO cell growth as described above. Cell counts were compared to those obtained in basal medium that was unsupplemented (negative control) or to EMEM supplemented with 5% FBS (positive control). […] RGE was calculated as described in Example 2. […] The results in this table represent the mean cells per 25 cm^2 flask in duplicate over 4 subcultures.

In the case of “EGF: recombinant human EGF (epidermal growth factor)”, the “Mean Cell Count” value (Table 6, 0.5 mg/L in basal medium) is reported as 8.0 × 10^5, the RGE (Table 6, 0.5 mg/L, relative to 5% FBS control) is reported as 34 and the “Mean Cell Count” value (Table 6, 1 mg/L in basal medium) is reported as 11.4 × 10^5. The RGE (Table 6, 1 mg/L, relative to 5% FBS control) was 49, the RGE (Table 6, 5 mg/L, relative to 5% FBS control) was 51 and the “Mean Cell Count” value (Table 6, 10 mg/L in basal medium) was 22.6 × 10^5. The “Mean Cell Count” value (Table 7, 5 mg/L) was 20.2 × 10^5, the RGE (Table 7, 5 mg/L, relative to 5% FBS control) was 76 and the “Mean Cell Count” value (Table 7, 6 mg/L) was 19.3 × 10^5. The RGE (Table 7, 6 mg/L, relative to 5% FBS control) was 73, the “Mean Cell Count” value (Table 7, 7 mg/L) was 19.6 × 10^5 and the RGE (Table 7, 7 mg/L, relative to 5% FBS control) was 74. For the same substance, the “Mean Cell Count” value (Table 7, 8 mg/1.) was 21.0 × 10^5, the RGE (Table 7, 8 mg/1., relative to 5% FBS control) was 79 and the “Mean Cell Count” value (Table 7, 9 mg/L) was 20.7 × 10^5. The RGE (Table 7, 9 mg/L, relative to 5% FBS control) was 78, the “Mean Cell Count” value (Table 7, 10 mg/L) was 19.5 × 10^5 and the RGE (Table 7, 10 mg/L, relative to 5% FBS control) was 73. The RGE (Table 8, 5 mg/L, as % of 0 mg/L control) was 137%, the “Mean Cell Count” value (Table 8, 5 mg/L, mean cells per 25 cm^2 flask in duplicate over 4 subcultures) was 7.0 × 10^5 and the RGE (Table 8, 6 mg/L, as % of 0 mg/L control) was 118%. The “Mean Cell Count” value (Table 8, 6 mg/L, over 4 subcultures) was 6.0 × 10^5, the RGE (Table 8, 7 mg/L, as % of 0 mg/L control) was 139% and the “Mean Cell Count” value (Table 8, 7 mg/L, over 4 subcultures) was 7.1 × 10^5. The RGE (Table 8, 8 mg/L, as % of 0 mg/L control) was 143%, the “Mean Cell Count” value (Table 8, 8 mg/L, over 4 subcultures) was 7.3 × 10^5 and the RGE (Table 8, 9 mg/L, as % of 0 mg/L control) was 145%. For the same substance, the “Mean Cell Count” value (Table 8, 9 mg/L, over 4 subcultures) was 7.4 × 10^5, the RGE (Table 8, 10 mg/L, as % of 0 mg/L control) was 133% and the “Mean Cell Count” value (Table 8, 10 mg/L, over 4 subcultures) was 6.8 × 10^5.
